Results as given in ChEMBL document CHEMBL4052662, “Synthesis, docking study and neuroprotective effects of some novel pyrano[3,2-c]chromene derivatives bearing morpholine/phenylpiperazine moiety” (Bioorg Med Chem, 2017).

How the values were obtained:
Acetylcholinesterase [1] = target: T1, Acetylcholinesterase (Electrophorus electricus, UniProt O42275); assay: Inhibition of electric eel AChE using acetylthiocholine iodide as substrate measured for 6 mins by Ellman's method
Cholinesterase = Cholinesterase (Equus caballus, UniProt P81908); assay: Inhibition of equine serum BuChE using butyrylthiocholine iodide as substrate measured for 6 mins by Ellman's method
Cholinesterase, sequence (P81908 whole entry): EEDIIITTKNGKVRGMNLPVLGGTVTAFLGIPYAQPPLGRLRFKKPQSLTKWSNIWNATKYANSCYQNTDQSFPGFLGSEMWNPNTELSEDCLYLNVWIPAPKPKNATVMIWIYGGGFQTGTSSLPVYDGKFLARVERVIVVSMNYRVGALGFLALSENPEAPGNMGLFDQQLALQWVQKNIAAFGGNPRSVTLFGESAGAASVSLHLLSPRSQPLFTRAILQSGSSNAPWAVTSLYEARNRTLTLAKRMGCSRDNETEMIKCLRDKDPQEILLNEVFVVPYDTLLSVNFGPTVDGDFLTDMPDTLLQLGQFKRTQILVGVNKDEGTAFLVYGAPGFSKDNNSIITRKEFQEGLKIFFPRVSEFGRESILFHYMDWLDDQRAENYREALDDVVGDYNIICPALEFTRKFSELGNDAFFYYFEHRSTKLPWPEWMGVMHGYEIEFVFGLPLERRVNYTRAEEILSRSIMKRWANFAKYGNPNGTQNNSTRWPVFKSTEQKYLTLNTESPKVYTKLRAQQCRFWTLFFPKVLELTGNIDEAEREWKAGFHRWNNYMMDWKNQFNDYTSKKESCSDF

Acetylcholinesterase [2] = target: T1, Acetylcholinesterase; assay: Mixed-type inhibition of electric eel AChE using varying levels of acetylthiocholine iodide as substrate measured for 2 mins by Lineweaver-Burk plot analysis
[3] = target: Beta-secretase 1 (Homo sapiens) (UniProt P56817); assay: Inhibition of human BACE1 using Rh-EVNLDAEFK-quencher as substrate measured after 60 mins by FRET assay
Beta-secretase 1 (Homo sapiens), sequence (P56817 whole entry): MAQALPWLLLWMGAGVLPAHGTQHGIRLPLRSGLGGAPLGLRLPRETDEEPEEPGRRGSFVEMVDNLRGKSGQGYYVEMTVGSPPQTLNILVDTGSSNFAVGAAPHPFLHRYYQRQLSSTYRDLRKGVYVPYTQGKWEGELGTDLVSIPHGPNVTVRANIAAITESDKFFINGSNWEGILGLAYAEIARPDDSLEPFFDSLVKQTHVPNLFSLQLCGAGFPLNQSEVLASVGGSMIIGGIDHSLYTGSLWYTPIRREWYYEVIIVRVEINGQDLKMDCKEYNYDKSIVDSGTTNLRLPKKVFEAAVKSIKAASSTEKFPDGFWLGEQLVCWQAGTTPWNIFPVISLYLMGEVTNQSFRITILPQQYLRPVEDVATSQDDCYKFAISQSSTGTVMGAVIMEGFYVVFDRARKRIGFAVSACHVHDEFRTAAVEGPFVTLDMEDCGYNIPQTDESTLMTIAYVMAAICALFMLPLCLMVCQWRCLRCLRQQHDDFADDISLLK

[4] = Selectivity index, ratio of IC50 for equine serum BuChE to IC50 for electric eel AChE
PC-12 = assay: Neuroprotective activity against H2O2-induced cell death in rat PC12 cells assessed as cell viability 10 uM pretreated for three hours followed by H2O2 induction after 12 hrs by MTT assay relative to control; type: functional

T1 sequence (O42275 whole entry): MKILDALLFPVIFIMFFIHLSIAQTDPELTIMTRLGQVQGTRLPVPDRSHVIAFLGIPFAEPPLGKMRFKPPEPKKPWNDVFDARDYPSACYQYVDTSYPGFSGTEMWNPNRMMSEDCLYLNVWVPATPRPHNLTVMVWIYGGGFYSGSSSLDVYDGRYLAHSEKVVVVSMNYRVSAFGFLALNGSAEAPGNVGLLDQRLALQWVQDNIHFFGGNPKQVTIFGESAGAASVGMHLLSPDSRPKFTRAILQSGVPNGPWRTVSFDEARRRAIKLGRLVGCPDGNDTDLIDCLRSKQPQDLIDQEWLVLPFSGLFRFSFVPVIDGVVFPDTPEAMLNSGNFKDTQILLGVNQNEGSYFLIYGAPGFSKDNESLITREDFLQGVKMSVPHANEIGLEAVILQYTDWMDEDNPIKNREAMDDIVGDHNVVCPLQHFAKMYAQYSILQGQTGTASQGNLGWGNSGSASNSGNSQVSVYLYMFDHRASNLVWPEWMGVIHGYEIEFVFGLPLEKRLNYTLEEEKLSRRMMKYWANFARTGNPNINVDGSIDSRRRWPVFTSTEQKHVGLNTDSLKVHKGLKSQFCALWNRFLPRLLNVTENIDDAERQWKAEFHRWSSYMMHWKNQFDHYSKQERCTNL

SMILES	IC50 (Acetylcholinesterase [1]; read-out: IC50)	IC50 (Cholinesterase; read-out: IC50)	Ki (Acetylcholinesterase [2])	inhibition [3]	Ratio IC50 [4]	Activity (PC-12)	IC50 (Acetylcholinesterase [1])	IC50 (Cholinesterase)
N#CC1=C(NC(=O)CN2CCOCC2)Oc2c(c(=O)oc3ccccc23)C1c1ccc([N+](=O)[O-])cc1 (configuration not stated)	> 100 µM	> 100 µM						
COc1ccc(C2C(C#N)=C(NC(=O)CN3CCN(c4ccccc4)CC3)Oc3c2c(=O)oc2ccccc32)cc1 (configuration not stated)	1.12 µM	45.7 µM	3.19 µM	18%	40.8	84.7%		
N#CC1=C(NC(=O)CN2CCOCC2)Oc2c(c(=O)oc3ccccc23)C1c1ccccc1 (configuration not stated)	23.9 µM	88.4 µM			3.7			
COc1ccc(C2C(C#N)=C(NC(=O)CN3CCN(c4ccccc4)CC3)Oc3c2c(=O)oc2ccccc32)cc1OC (configuration not stated)	1.42 µM	58.2 µM			41	76%		
COc1ccc(C2C(C#N)=C(NC(=O)CN3CCN(c4ccccc4)CC3)Oc3c2c(=O)oc2ccccc32)c(OC)c1 (configuration not stated)	31.4 µM	> 100 µM						
N#CC1=C(NC(=O)CN2CCOCC2)Oc2c(c(=O)oc3ccccc23)C1c1cccs1 (configuration not stated)	> 100 µM	> 100 µM						
COc1ccc(C2C(C#N)=C(NC(=O)CN3CCOCC3)Oc3c2c(=O)oc2ccccc32)c(OC)c1 (configuration not stated)	25.6 µM	> 100 µM						
N#CC1=C(NC(=O)CN2CCN(c3ccccc3)CC2)Oc2c(c(=O)oc3ccccc23)C1c1ccc(Cl)cc1 (configuration not stated)	6.33 µM	89.2 µM			14.1	75%		
COc1ccc(C2C(C#N)=C(NC(=O)CN3CCOCC3)Oc3c2c(=O)oc2ccccc32)cc1 (configuration not stated)	2.05 µM	63.8 µM			31.1	78.5%		
N#CC1=C(NC(=O)CN2CCN(c3ccccc3)CC2)Oc2c(c(=O)oc3ccccc23)C1c1ccc(F)cc1 (configuration not stated)							Nd(Insoluble)	Nd(Insoluble)
N#CC1=C(NC(=O)CN2CCOCC2)Oc2c(c(=O)oc3ccccc23)C1c1ccc(Cl)cc1 (configuration not stated)	14.6 µM	91.5 µM			6.3			
N#CC1=C(NC(=O)CN2CCN(c3ccccc3)CC2)Oc2c(c(=O)oc3ccccc23)C1c1ccccc1 (configuration not stated)	11.5 µM	52.3 µM			4.5			
N#CC1=C(NC(=O)CN2CCN(c3ccccc3)CC2)Oc2c(c(=O)oc3ccccc23)C1c1ccc([N+](=O)[O-])cc1 (configuration not stated)							Nd(Insoluble)	Nd(Insoluble)
N#CC1=C(NC(=O)CN2CCOCC2)Oc2c(c(=O)oc3ccccc23)C1c1ccc(F)cc1 (configuration not stated)	> 100 µM	> 100 µM						
COc1ccc(C2C(C#N)=C(NC(=O)CN3CCOCC3)Oc3c2c(=O)oc2ccccc32)cc1OC (configuration not stated)	3.25 µM	34.2 µM			10.5	84.7%		
Cc1ccc(C2C(C#N)=C(NC(=O)CN3CCN(c4ccccc4)CC3)Oc3c2c(=O)oc2ccccc32)c(C)c1 (configuration not stated)	32.9 µM	> 100 µM						
